Drawing on patent US12173007B2, “Imidazopyridazine IL-17 inhibitor compounds” (Janssen Pharmaceutica NV, priority 2021, dated 2024), this text covers IC50 for 18 compounds.

Assay [1] concerns the target IL-17A(FLAG-Tagged): IL-17RA(His-Tagged) binding (Homo sapiens, UniProt Q16552, K93Q). The assay is described as follows: IL-17A(FLAG-tagged):IL-17RA(His-tagged) binding disruption Eu-HTRF assay, Protocol 2. To be noted: FLAG-IL-17A 1 nM; average if tested more than once. A digest of the protocol:
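FLAG-tagged IL-17A (1 nM final) was preincubated with compound (2-fold serial dilutions, 22 points) for 1 h at rt in PBS + 0.01% Triton X-100. 10×His-IL-17RA, Eu-anti-FLAG and D2-anti-His in buffer containing KF were then added for 2 h at rt. IC50 came from the 665/615 nm HTRF ratio fitted to a one-site competition model.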
(In general: In TR-FRET formats the signal depends on donor and acceptor labels being close together.)

Assay [2] has as its system IL-17A-induced G-CSF production in human normal keratinocyte (NHK). The assay is described as follows: NHK assay: IL-17A-induced G-CSF production in normal human keratinocytes. The assay is classed as cell-based. To be noted: Homo sapiens, Keratinocyte, 24 h, IL-17A 5 ng/mL, G-CSF by HTRF, average if tested more than once. Put shortly:
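IC50 derives from G-CSF in supernatants, quantified by HTRF from a standard curve, with CellTiter-Glo viability compared to DMSO control. Before a 24 h, 37°C culture of normal human keratinocytes at 3000–4000 cells/well, compound dilutions were preincubated 1 h at rt with human IL-17A (5 ng/mL final), with 0.2% DMSO and 5% FBS.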

Sequence of UniProt Q16552 (Q16552 with tags, fused parts or gaps K93Q): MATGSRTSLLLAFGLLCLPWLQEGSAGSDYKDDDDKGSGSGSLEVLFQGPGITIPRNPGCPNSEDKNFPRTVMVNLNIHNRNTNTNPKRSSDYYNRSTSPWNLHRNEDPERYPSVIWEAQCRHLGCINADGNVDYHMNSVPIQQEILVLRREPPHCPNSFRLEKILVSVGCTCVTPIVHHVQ

As to `COC[C@H](c1cnn2cc([C@H](CCC(C)(C)C(F)(F)F)NC(=O)c3nonc3OC)nc2c1)N1CC(F)(F)CNC1=O` [Example 109, N—((S)-1-(7-((S)-1-(5,5-Difluoro-2-oxotetrahydropyrimidin-1(2H)-yl)-2-methoxyethyl)imidazo[1,2-b]pyridazin-2-yl)-5,5,5-trifluoro-4,4-dimethylpentyl)-4-methoxy-1,2,5-oxadiazole-3-carboxamide], the half-maximal inhibitory concentration (IC50) in assay [1] and in assay [2] was under 50 nM throughout.

With `COC[C@H](c1cnn2cc(C(CCC3(C(F)(F)F)CC3)NC(=O)c3nonc3C)nc2c1)N1CC(F)(F)CNC1=O` (single isomer, unassigned) [Example 125, N—((R*)-1-(7-((S)-1-(5,5-Difluoro-2-oxotetrahydropyrimidin-1(2H)-yl)-2-methoxyethyl)imidazo[1,2-b]pyridazin-2-yl)-3-(1-(trifluoromethyl)cyclopropyl)propyl)-4-methyl-1,2,5-oxadiazole-3-carboxamide], the concentration for half-maximal inhibition (IC50) in assay [1] and in assay [2] was over 100 nM in each case.

In the case of `COC[C@H](c1cnn2cc([C@@H](NC(=O)c3nonc3C3CC3)[C@@H](C)OC3(C(F)(F)F)CC3)nc2c1)N1CC(F)(F)CNC1=O` (relative stereo) [Example 90, 4-Cyclopropyl-N-((1R*,2R*)-1-(7-((S)-1-(5,5-difluoro-2-oxotetrahydropyrimidin-1(2H)-yl)-2-methoxyethyl)imidazo[1,2-b]pyridazin-2-yl)-2-(1-(trifluoromethyl)cyclopropoxy)propyl)-1,2,5-oxadiazole-3-carboxamide], the IC50 in assay [1] and in assay [2] was under 50 nM each time.

Take `COC[C@H](c1cnn2cc([C@@H](NC(=O)c3nonc3OC)C3CCC(F)(F)CC3)nc2c1)N1CC(F)(F)CNC1=O` [Example 108, N—((S)-(7-((S)-1-(5,5-Difluoro-2-oxotetrahydropyrimidin-1(2H)-yl)-2-methoxyethyl)imidazo[1,2-b]pyridazin-2-yl)(4,4-difluorocyclohexyl)methyl)-4-methoxy-1,2,5-oxadiazole-3-carboxamide]: the IC50 in assay [1] and in assay [2] was under 50 nM in each case.

On to `[2H]C1([2H])NC(=O)N([C@H](COC2CC2)c2cnn3cc([C@@H](NC(=O)c4nonc4C)C4CCC(F)(F)CC4)nc3c2)C([2H])([2H])C1(F)F` (single isomer, unassigned) [Example 40], for which the IC50 in assay [1] and in assay [2] was under 50 nM in each case.

Turning to `COc1nonc1C(=O)N[C@@H](CCC(C)(C)C(F)(F)F)c1cn2ncc(CN3CC(F)(F)CNC3=O)cc2n1` [Example 113, (S)—N-(1-(7-((5,5-Difluoro-2-oxotetrahydropyrimidin-1(2H)-yl)methyl)imidazo[1,2-b]pyridazin-2-yl)-5,5,5-trifluoro-4,4-dimethylpentyl)-4-methoxy-1,2,5-oxadiazole-3-carboxamide], the concentration for half-maximal inhibition (IC50) in assay [1] and in assay [2] was under 50 nM in each case.

For `COC[C@H](c1cnn2cc([C@H](CCC(C)(C)C(F)(F)F)NC(=O)c3ncnn3C(C)C)nc2c1)N1CC(F)(F)CNC1=O` [Example 111, N—((S)-1-(7-((S)-1-(5,5-Difluoro-2-oxotetrahydropyrimidin-1(2H)-yl)-2-methoxyethyl)imidazo[1,2-b]pyridazin-2-yl)-5,5,5-trifluoro-4,4-dimethylpentyl)-1-isopropyl-1H-1,2,4-triazole-5-carboxamide], the 50% inhibitory concentration (IC50) in assay [1] and in assay [2] was under 50 nM throughout.

For `COC[C@H](c1cnn2cc([C@H](CCC(C)(C)C(F)(F)F)NC(=O)c3nonc3C(F)F)nc2c1)N1CC(F)(F)CNC1=O` [Example 110, N—((S)-1-(7-((S)-1-(5,5-Difluoro-2-oxotetrahydropyrimidin-1(2H)-yl)-2-methoxyethyl)imidazo[1,2-b]pyridazin-2-yl)-5,5,5-trifluoro-4,4-dimethylpentyl)-4-(difluoromethyl)-1,2,5-oxadiazole-3-carboxamide], the IC50 in assay [1] and in assay [2] was under 50 nM in each case.

Take `[2H]C1([2H])NC(=O)N([C@H](COC2CC2)c2cnn3cc([C@@H](NC(=O)c4nonc4CC)C4CCC(F)(F)CC4)nc3c2)C([2H])([2H])C1(F)F` [Example 70, N—((S)-(7-((S)-2-Cyclopropoxy-1-(5,5-difluoro-2-oxotetrahydropyrimidin-1(2H)-yl-4,4,6,6-d4)ethyl)imidazo[1,2-b]pyridazin-2-yl)(4,4-difluorocyclohexyl)methyl)-4-ethyl-1,2,5-oxadiazole-3-carboxamide]: the IC50 in assay [1] and in assay [2] was under 50 nM throughout.

On to `COC[C@H](c1cnn2cc([C@@H](NC(=O)c3nonc3C(F)F)C3CCC(F)(F)CC3)nc2c1)N1CC(F)(F)CNC1=O` [Example 79, N—((S)-(7-((S)-1-(5,5-Difluoro-2-oxotetrahydropyrimidin-1(2H)-yl)-2-methoxyethyl)imidazo[1,2-b]pyridazin-2-yl)(4,4-difluorocyclohexyl)methyl)-4-(difluoromethyl)-1,2,5-oxadiazole-3-carboxamide], for which the IC50 in assay [1] and in assay [2] was under 50 nM throughout.

For the compound `COc1nonc1C(=O)N[C@@H](CCC(C)(C)C(F)(F)F)c1cn2ncc(CN3C[C@H]4[C@@H](CNC3=O)C4(F)F)cc2n1` (relative stereo) [Example 117, N—((S)-1-(7-(((1R*,7S*)-8,8-Difluoro-4-oxo-3,5-diazabicyclo[5.1.0]octan-3-yl)methyl)imidazo[1,2-b]pyridazin-2-yl)-5,5,5-trifluoro-4,4-dimethylpentyl)-4-methoxy-1,2,5-oxadiazole-3-carboxamide], the 50% inhibitory concentration (IC50) in assay [1] and in assay [2] was under 50 nM in each case.

As to `[2H]C1([2H])NC(=O)N([C@H](COC2CC2)c2cnn3cc([C@@H](NC(=O)c4ccnn4C(C)C)C4CCC(F)(F)CC4)nc3c2)C([2H])([2H])C1(F)F` [Example 71, N—((S)-(7-((S)-2-Cyclopropoxy-1-(5,5-difluoro-2-oxotetrahydropyrimidin-1(2H)-yl-4,4,6,6-d4)ethyl)imidazo[1,2-b]pyridazin-2-yl)(4,4-difluorocyclohexyl)methyl)-1-isopropyl-1H-pyrazole-5-carboxamide], the IC50 in assay [1] and in assay [2] was under 50 nM each time.

With `COc1nonc1C(=O)N[C@@H](CCC(C)(C)C(F)(F)F)c1cn2ncc([C@@H](COC3CC3)N3CC(F)(F)CNC3=O)cc2n1` [Example 122, N—((S)-1-(7-((S)-2-Cyclopropoxy-1-(5,5-difluoro-2-oxotetrahydropyrimidin-1(2H)-yl)ethyl)imidazo[1,2-b]pyridazin-2-yl)-5,5,5-trifluoro-4,4-dimethylpentyl)-4-methoxy-1,2,5-oxadiazole-3-carboxamide], the half-maximal inhibitory concentration (IC50) in assay [1] and in assay [2] was under 50 nM throughout.

Take `COC[C@H](c1cnn2cc([C@@H](NC(=O)c3nocc3CC(F)(F)F)C3CCC(F)(F)CC3)nc2c1)N1CC(F)(F)CNC1=O` [Example 106, N—((S)-(7-((S)-1-(5,5-Difluoro-2-oxotetrahydropyrimidin-1(2H)-yl)-2-methoxyethyl)imidazo[1,2-b]pyridazin-2-yl)(4,4-difluorocyclohexyl)methyl)-4-(2,2,2-trifluoroethyl)isoxazole-3-carboxamide]: the half-maximal inhibitory concentration (IC50) in assay [1] and in assay [2] was under 50 nM in each case.

`[2H]C1([2H])NC(=O)N([C@H](COC)c2cnn3cc([C@H](CCC(C)(C)C(F)(F)F)NC(=O)c4nonc4C4CC4)nc3c2)C([2H])([2H])C1(F)F` [Example 80, 4-Cyclopropyl-N—((S)-1-(7-((S)-1-(5,5-difluoro-2-oxotetrahydropyrimidin-1(2H)-yl-4,4,6,6-d4)-2-methoxyethyl)imidazo[1,2-b]pyridazin-2-yl)-5,5,5-trifluoro-4,4-dimethylpentyl)-1,2,5-oxadiazole-3-carboxamide]: the concentration for half-maximal inhibition (IC50) in assay [1] and in assay [2] was under 50 nM in each case.

For `COC[C@H](c1cnn2cc([C@H](CCC(C)(C)C(C)(F)F)NC(=O)c3nonc3C)nc2c1)N1CC(F)(F)CNC1=O` (relative stereo) [Example 133, N—((S*)-1-(7-((S)-1-(5,5-Difluoro-2-oxotetrahydropyrimidin-1(2H)-yl)-2-methoxyethyl)imidazo[1,2-b]pyridazin-2-yl)-5,5-difluoro-4,4-dimethylhexyl)-4-methyl-1,2,5-oxadiazole-3-carboxamide], the IC50 in assay [1] and in assay [2] was under 50 nM in each case.

For `COC[C@H](c1cnn2cc([C@@H](NC(=O)c3nonc3C(C)(F)F)C3CCC(F)(F)CC3)nc2c1)N1CC(F)(F)CNC1=O` [Example 127, N—((S)-(7-((S)-1-(5,5-Difluoro-2-oxotetrahydropyrimidin-1(2H)-yl)-2-methoxyethyl)imidazo[1,2-b]pyridazin-2-yl)(4,4-difluorocyclohexyl)methyl)-4-(1,1-difluoroethyl)-1,2,5-oxadiazole-3-carboxamide], the IC50 in assay [1] and in assay [2] was under 50 nM each time.

Consider `CC(C)(CC[C@H](NC(=O)c1nonc1C1CC1)c1cn2ncc(CN3CC(F)(F)CNC3=O)cc2n1)C(F)(F)F` [Example 114, (S)-4-Cyclopropyl-N-(1-(7-((5,5-difluoro-2-oxotetrahydropyrimidin-1(2H)-yl)methyl)imidazo[1,2-b]pyridazin-2-yl)-5,5,5-trifluoro-4,4-dimethylpentyl)-1,2,5-oxadiazole-3-carboxamide], for which the concentration for half-maximal inhibition (IC50) in assay [1] and in assay [2] was under 50 nM in each case.

Usually IC50 stands for the midpoint of a concentration-inhibition curve.
